Data on 1 compound can be found in publication PMC9954146, “Anti-Leukaemic Activity of Rilpivirine Is Mediated by Aurora A Kinase Inhibition” (Cancers, 2023).

Data set [1] can be described thus: Tolerated dose in non-tumour-bearing mice. It counts as in vivo. As to conditions: up to an oral dose of 300 mg/kg, once daily for seven days; non-tumour-bearing female BALB/c nude mice. As for the experimental part:
Animal experiments were performed as reported previously. All animal experiments were conducted following the institutional ethical principles of animal care and approved by the University of South Australia Animal Ethics Committee.

A short description of data set [2]: In vivo safety profile in HL-60 engrafted mice. On the set-up: species or system mouse. As to conditions: 200 mg/kg orally, once daily for 14 days. Here is the method: Female 6–7-week-old BALB/c nude mice with tumour volumes of 100–200 mm^3 were allocated to two groups (n = 3 per group) and treated with vehicle (0.5% HPMC in water) or rilpivirine (200 mg/kg) daily for 14 days. Upon 24 h post the final dose, mice were humanely killed, and blood, bone marrow, heart, kidney, intestine, liver, and stomach were collected for histopathological analysis. Blood was collected in citrate-treated tubes and a complete blood count was performed by Gribbles Veterinary Pathology (South Australia, Australia). Organs were collected in 10% neutral buffered formalin and stained with hematoxylin and eosin externally by the Hanson Histology Services (South Australia, Australia), while histopathologic analysis was performed by a board-certified pathologist.

The test system of data set [3] is leukaemia cell lines (HL-60, NB4, K-562, and U-937). The experiment in a line: Resazurin cell viability assay, four cell lines. It is filed as cell-based. The following applies: Homo sapiens; after 24, 48, or 72 h of treatment; read-out: GI50 values, range over all cell lines. As for the experimental part:
(§1) Cell viability was determined by a resazurin-based assay as described previously. Briefly, 5 × 10^3 cells/well were seeded into 96-well plates (Corning Inc., Corning, NY, USA) in 180 µL of RPMI 1640 medium and incubated overnight at 37 °C with 5% CO2. Next day, cells were treated with rilpivirine after serially diluted (1:2 dilution for final concentrations ranging from 0.625 µM to 40 µM) or DMSO (0.1%) for specified time periods (24, 48, or 72 h). At the end of the treatment period, 20 µL of resazurin (0.1 mg/mL in PBS) was added per well and incubated for further 4 h. Fluorescence intensities were recorded at 570 nm (excitation)/585 nm (emission) using an EnVision® multilabel plate reader (PerkinElmer, MA, USA). Drug concentrations required for cell viability reduction by 50% (GI50) compared with untreated (DMSO vehicle-treated only) control were determined by a non-linear regression model using GraphPad Prism software version 7.02 (La Jolla, CA, USA).

In a further data set the test system is HL-60 xenograft. The experiment in a line: In vivo anti-cancer efficacy, HL-60 xenograft. The following applies: 200 mg/kg oral gavage once daily for 15 days. As for the experimental part:
An in vivo anti-cancer efficacy study was performed as reported previously. Briefly, female nude BALB/c mice (6–8 weeks of age) were engrafted with HL-60 human leukaemic cells subcutaneously into the rear flanks. Before inoculation, HL-60 (5 × 10^6) cells were cultured, harvested, and re-suspended in a 1:1 mixture of serum-free media and Matrigel (BD Biosciences, NSW, Australia). Mice with 100–200 mm^3 tumour size were allocated randomly into the control or treatment group. Rilpivirine and vehicle (0.5% HPMC) were administered by oral gavage daily. Mice were checked daily for any clinical signs of toxicity, including weight loss. Tumour volume was measured every other day and was calculated as length × width × height. At the end of the study period, or if clinical endpoints were reached as determined by a clinical record sheet score of 4, body condition score of 1, weight loss of ≥15%, or tumour growth of ≥2000 mm^3, the mouse was euthanised. Data analysis was performed using GraphPad Prism software version 7.02 (La Jolla, CA, USA).

Another data set concerns CK1(y). Kind of data set: Kinase panel. It counts as biochemical, yeast. The following applies: 1 μM. As for the experimental part:
(§2) Kinome-wide selectivity of rilpivirine was measured using the kinase screening and profiling service of Eurofins Scientific (Le bois l’Evêque 86600. Celle-Lévescault, France) and Ki values were determined using radioisotope-based assays by Reaction Biology Corporation (Malvern, PA, USA). The experimental details of Eurofin Scientific and Reaction Biology services for relevant assays are available at https://www.eurofinsdiscoveryservices.com/services/in-Vitro-assays/kinases/kinase-profiler (accessed on 7 July 2021) and https://www.reactionbiology.com (accessed on 7 July 2021), respectively. Ki values were estimated from the corresponding IC50 values using the Cheng–Prusoff equation [21] and the Km (ATP) of individual kinase was used for IC50 determination.

The next data set concerns K-562 cells. The experiment in a line: Resazurin cell viability assay. It is filed as cell-based, human. As to conditions: Homo sapiens. As for the experimental part:
as §1

For a further data set, the system named is PIM1. Kind of data set: Radioisotope-based kinase assay (Ki). As to conditions: PIM1 vs Aurora A. It counts as biochemical. As for the experimental part: as §2
The target of another data set is T1, LYN (Homo sapiens, UniProt P07948).
T1 construct: purchased Reaction Biology Corporation (assay service)
T1 sequence (P07948 whole entry): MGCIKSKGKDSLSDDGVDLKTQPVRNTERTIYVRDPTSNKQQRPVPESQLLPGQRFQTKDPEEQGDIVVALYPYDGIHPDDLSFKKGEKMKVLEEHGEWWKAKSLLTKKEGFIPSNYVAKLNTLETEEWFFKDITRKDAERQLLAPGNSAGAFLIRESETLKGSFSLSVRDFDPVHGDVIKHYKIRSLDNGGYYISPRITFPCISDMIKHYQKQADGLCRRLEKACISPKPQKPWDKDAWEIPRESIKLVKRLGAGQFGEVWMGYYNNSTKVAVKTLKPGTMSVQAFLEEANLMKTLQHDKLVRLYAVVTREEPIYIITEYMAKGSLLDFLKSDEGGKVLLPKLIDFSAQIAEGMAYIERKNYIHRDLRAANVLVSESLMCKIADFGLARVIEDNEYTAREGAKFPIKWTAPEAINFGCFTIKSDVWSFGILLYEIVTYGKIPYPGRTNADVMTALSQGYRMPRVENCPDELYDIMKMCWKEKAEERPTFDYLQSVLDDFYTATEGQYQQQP
Kind of data set: Radioisotope-based kinase assay (Ki). It is filed as biochemical. The following applies: apparent Ki from IC50 and Km (ATP). As for the experimental part: as §2

A further data set deals with T2, YES (Homo sapiens, UniProt P07947).
T2 construct: purchased Reaction Biology Corporation (assay service)
T2 sequence (P07947 whole entry): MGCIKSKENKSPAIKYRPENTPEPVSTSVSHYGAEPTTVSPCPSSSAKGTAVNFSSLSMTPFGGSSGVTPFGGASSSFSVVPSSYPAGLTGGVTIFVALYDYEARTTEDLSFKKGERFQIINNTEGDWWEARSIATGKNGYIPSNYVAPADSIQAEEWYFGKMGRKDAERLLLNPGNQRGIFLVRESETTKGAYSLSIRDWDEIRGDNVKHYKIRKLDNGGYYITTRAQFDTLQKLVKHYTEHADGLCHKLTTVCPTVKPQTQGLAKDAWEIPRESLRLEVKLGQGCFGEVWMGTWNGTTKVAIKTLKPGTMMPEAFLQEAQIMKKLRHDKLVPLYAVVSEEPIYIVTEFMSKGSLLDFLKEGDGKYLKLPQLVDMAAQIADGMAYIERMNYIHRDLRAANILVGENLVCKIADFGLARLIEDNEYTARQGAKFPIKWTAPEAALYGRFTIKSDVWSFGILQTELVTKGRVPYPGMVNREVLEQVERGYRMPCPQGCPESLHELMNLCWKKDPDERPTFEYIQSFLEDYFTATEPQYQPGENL
Kind of data set: Radioisotope-based kinase assay (Ki). It counts as biochemical. The following applies: apparent Ki from IC50 and Km (ATP). As for the experimental part:
as §2

Data set [4] has as its system caspase 3/7 in HL-60, NB4, K-562, and U-937 cells. The experiment in a line: Caspase-3/7 activity assay. It is filed as cell-based, human. The following applies: 10 µM, 48 h, all cell lines. As for the experimental part: Caspase-3/7 activity was measured after incubation of the cells with the test compounds for a specified time point using an Apo-ONE homogeneous caspase-3/7 kit (Promega, Madison, WI, USA) according to the manufacturer’s instructions. The signal was recorded by the EnVision multi-label plate reader (PerkinElmer, Beaconsfield, UK).

In general, GI50 refers to the concentration giving 50% growth inhibition.

Regarding `Cc1cc(/C=C/C#N)cc(C)c1Nc1ccnc(Nc2ccc(C#N)cc2)n1` [rilpivirine, (E)-4-((4-((4-(2-cyanoethenyl)-2,6-dimethylphenyl)amino)pyrimidin-2-yl)amino)benzonitrile], the “body weight and clinical signs of toxicity” value in data set [1] is recorded as “did not cause any significant changes in body weight (i.e., >15%) or show overt clinical signs of toxicity”. The “complete blood count (red blood cells, neutrophils, lymphocytes, platelets)” value in data set [2] is given as “did not show any noticeable effects”. Further, in data set [2], the “histopathology of major organs” value is “did not cause any tissue damage in major organs”. Also, the GI50 was 4.12 to 12.4 µM in data set [3]; 12.4 ± 2.16 µM in the data set on K-562 cells (K562, 24 h); 8.43 ± 0.37 µM with K-562 cells (K562, 48 h); 7.36 ± 0.24 µM with K-562 cells (K562, 72 h). The “day from which reduction in tumour growth was statistically significant (p < 0.001)” value with HL-60 xenograft was at least 11 days. Moreover, the “signs of toxicity or weight loss during treatment” value in the data set on HL-60 xenograft was “did not cause any apparent signs of toxicity or weight loss”. For the same compound, the “tumour growth compared with vehicle-treated group” value with HL-60 xenograft is given as “noticeable delay in tumour growth”. In addition, in the data set with CK1(y), the “% Residual Activity” value worked out at 92%. Besides, the “potency against PIM1 relative to Aurora A kinase” value in the data set on PIM1 was “four-and-a-half-fold less potent”. Moreover, the Ki at LYN turned out to be 0.93 µM; at YES it was 1.57 µM. Moreover, the “caspase 3/7 activation vs untreated control” value in data set [4] is reported as “significantly increased”.
